In brackets after ≈: the same amount, converted by molar mass. Several values for one entry are separate records, joined by “and”; a condition that tells them apart may be missing. Identical values can stand only once.

Here are results for ten compounds from patent publication US9388209B2, “2′, 3′-dideoxy-5-fluorouridine derivatives, a process for the manufacture thereof and application thereof” (ADAM MICKIEWICZ UNIVERSITY, priority 2014, dated 2016).

Data set [1] has as its system HeLa (cervical cancer). In words: Cytotoxicity test with sulphorhodamine B, HeLa line. The settings on record: for IC50: Homo sapiens, 72 h, read-out: Cytotoxic activity IC50 HeLa (cervical cancer), 72 hours incubation, average of three independent determinations.
Experimental: (§1) Cytotoxicity tests were carried out using a standard procedure with sulphorhodamine B. They involved incubation of the cancer cell lines in the logarithmic growth phase for 72 hours with the compound tested and, subsequently, spectrophotometric determination of the degree of cell growth inhibition using adsorption of a dye (sulphorhodamine B) which binds cellular proteins.
(§2) Cells of the cell line tested in the logarithmic growth phase were seeded onto 24-well plates in a quantity of 20,000 cells/2 mL of the growth medium per well and, subsequently, incubated in an incubator at 37° C., in the 5% CO2 atmosphere for 24 hours.
(§3) Solutions of the test compounds were prepared in DMSO in the following concentration range: 0.05; 0.1; 0.5; 1; 5; 10; 50; 100; 500 μM.
(§4) The cells of the lines tested were treated with the solutions of the test compounds in a laminar-flow chamber which ensured sterile working conditions according to the following procedure: the first three wells were used as a blank: they contained 20 μL of DMSO only; successive solutions of the test compound were added to subsequent wells (20 μL), starting with the lowest concentration (three wells for each concentration level). Subsequently, the plates were placed in an incubator for 72 hours.
(§5) After the end of incubation, the adhered cells were fixed by adding 500 μL of cold (4° C. 50% trichloroacetic acid (TCA) and incubated at 4° C. for 1 hour. Subsequently, each well was rinsed with sterile water and dried. The operation was repeated five times. The fixed cells were stained for 30 minutes by adding 500 μL of 0.4% of a dye solution (sulphorhodamine B) dissolved in 1% acetic acid. Any unbound dye was removed by decanting it from the plate, and the cells were washed 4 times with 1% acetic acid. Subsequently, the plates were dried in air for approx. 5 minutes. Any unbound dye was dissolved by adding 1500 μL of 10 mM Tris-base buffer (trishydroxymethylaminomethane) to each well and shaken using an orbital shaker for 5 minutes. Subsequently, 200 μL of solution from each well was transferred to each of two wells on a new 96-well plate and absorption of the solutions was determined spectrophotometrically at a wavelength of 490-530 nm using a plate reader. Percentage inhibition of cell growth by the test compound was calculated assuming the absorption of the control solution as 100%.
(§6) Depending on the type of the cell line, the following growth media were used: • the MCF-7 line was grown in Dulbecco's Modified Eagle's Medium (DME) from Sigma (cat. no. D5796), • the HeLa and Hep-G2 lines were grown in PPMI-1640 Medium from Sigma (cat. no. R8758).
The subject of data set [2] is MCF-7 (breast cancer). In words: Cytotoxicity test with sulphorhodamine B, MCF-7 line. The settings on record: for IC50: Homo sapiens, MCF7, 72 h, read-out: Cytotoxic activity IC50 MCF-7 line (breast cancer), 72 hours incubation, average of three independent determinations.
Experimental: as §1, §2, §3, §4, §5, §6
Data set [3] deals with HeLa (cervical cancer). The note with it: for Cytotoxic activity IC50 HeLa (cervical cancer): human, 72 h.
Experimental: as §1, §2, §3, §4, §5, §6
Data set [4] deals with MCF-7 (breast cancer). The settings on record: for Cytotoxic activity IC50 MCF-7 line (breast cancer): human, 72 h.
Experimental: as §1, §2, §3, §4, §5, §6
In the next data set the test system is Hep-G2 (hepatic cancer). The data set is described as follows: Cytotoxicity test with sulphorhodamine B, Hep-G2 line. In kind it is cell-based. The settings on record: for IC50: Homo sapiens, HepG2, 72 hours incubation, average of three independent determinations, read-out: Cytotoxic activity IC50 Hep-G2 (hepatic cancer); for fold higher activity than AddFU: Hep-G2, ratio of IC50. The text has this: The values are average results of three independent determinations.

The next data set deals with sarcoma 180. The settings on record: literature (Lin et al. 1983); cited from earlier work.
Data set [5] relates to L1210 cancer in mice induced by MLV retroviruses. The note with it: literature (Colla et al. 1985); cited from earlier work.

On to `C=CC1C[N@@]2CCC1C[C@@H]2C(OCc1cn(C2CC(n3cc(F)c(=O)[nH]c3=O)OC2CO)nn1)c1ccnc2ccccc12` (stereo partly drawn) [PCN5FdU, 5-Fluoro-1-(5-hydroxymethyl-4-{4-[quinolin-4-yl-(5-vinyl-1-aza-bicyclo[2.2.2]oct-2-yl)-methoxymethyl]-[1,2,3]triazol-1-yl}-tetrahydrofuran-2-yl)-1H-pyrimidine-2,4-dione], for which the IC50 is 27.6 µg/mL and 45.7 µM with HeLa (cervical cancer) [1]; 27.2 µg/mL and 45.1 µM in the data set on MCF-7 (breast cancer) [2]. For the same compound, in the data set on HeLa (cervical cancer) [3], the “cytotoxic activity in words, cervical cancer cells (HeLa line)” value (shortened to “cytotoxic activity in words … (HeLa line)”) is given as “medium active”.
With `COc1ccc2nccc([C@H](O)[C@H]3CC4CC[N@]3CC4c3cn(C4CC(n5cc(F)c(=O)[nH]c5=O)OC4CO)nn3)c2c1` (stereo partly drawn) [QD5FdU, 5-Fluoro-1-[4-(4-{6-[hydroxy-(6-methoxyquinolin-4-yl)-methyl]-1-aza-bicyclo[2.2.2]oct-3-yl}-[1,2,3]triazol-1-yl)-5-hydroxymethyl-tetrahydro-furan-2-yl]-1H-pyrimidine-2,4-dione], the IC50 in the data set with HeLa (cervical cancer) [1] is 1.6 µg/mL to 2.8 µg/mL and 2.7 µM; in the data set with MCF-7 (breast cancer) [2], 0.98 µg/mL to 1.5 µg/mL and 1.65 µM. For the same compound, the “Cytotoxic activity IC50 MCF-7 line (breast cancer)” value in the data set with MCF-7 (breast cancer) [4] was 0.98 µg/mL. The “Cytotoxic activity IC50 HeLa (cervical cancer)” value in the data set on HeLa (cervical cancer) [3] was determined as 1.6 µg/mL.
As for `O=c1[nH]c(=O)n(C2CC(n3cc(C4CN5CCC4C[C@H]5[C@H](O)c4ccnc5ccccc45)nn3)C(CO)O2)cc1F` (stereo partly drawn) [CD5FdU, 5-Fluoro-1-(5-hydroxymethyl-4-{4-[6-(hydroxy-quinolin-4-yl-methyl)-1-aza-bicyclo[2.2.2]oct-3-yl]-[1,2,3]triazol-1-yl}-tetrahydro-furan-2-yl)-1H-pyrimidine-2,4-dione], the 50% inhibitory concentration (IC50) in the data set with HeLa (cervical cancer) [1] is 7 µg/mL and 12.4 µM; in the data set with MCF-7 (breast cancer) [2] it was 6.9 µg/mL and 12.2 µM. Besides, in the data set with HeLa (cervical cancer) [3], the “cytotoxic activity in words … (HeLa line)” value is “medium active”.
Regarding `[N-]=[N+]=N[C@H]1C[C@H](n2cc(F)c(=O)[nH]c2=O)O[C@@H]1CO` [3′-azido-2′,3′-dideoxy-5-fluorouridine, reference compound], the 50% inhibitory concentration (IC50) was 3 µg/mL and 11.1 µM in the data set with HeLa (cervical cancer) [1]; 16 µg/mL and 59 µM in the data set with Hep-G2 (hepatic cancer); 2.2 µg/mL and 8.11 µM in the data set on MCF-7 (breast cancer) [2]. Besides, the “activity against sarcoma 180 in vitro, in words” value in the data set on sarcoma 180 is recorded as “weak activity”. Moreover, the “IC50 against L1210 cancer” value in data set [5] is 34 µg/mL (≈ 125 µM).
With `O=c1[nH]c(=O)n(C2CC(n3cc(C4CN5CCC4C[C@@H]5[C@@H](O)c4ccnc5ccccc45)nn3)C(CO)O2)cc1F` (stereo partly drawn) [CN5FdU, 5-Fluoro-1-(5-hydroxymethyl-4-{4-[6-(hydroxy-quinolin-4-yl-methyl)-1-aza-bicyclo[2.2.2]oct-3-yl]-[1,2,3]triazol-1-yl}-tetrahydro-furan-2-yl)-1H-pyrimidine-2,4-dione], the IC50 with HeLa (cervical cancer) [1] was 7.9 µg/mL and 14 µM; in the data set with MCF-7 (breast cancer) [2] it was 7 µg/mL and 12.4 µM. Besides, the “cytotoxic activity in words … (HeLa line)” value in the data set with HeLa (cervical cancer) [3] is “medium active”.
In the case of `COc1ccc2nccc(C(O)[C@@H]3CC4CCN3CC4c3cn(C4CC(n5cc(F)c(=O)[nH]c5=O)OC4CO)nn3)c2c1` (stereo partly drawn) [QN5FdU, 5-Fluoro-1-[4-(4-{6-[hydroxy-(6-methoxyquinolin-4-yl)-methyl]-1-aza-bicyclo[2.2.2]oct-3-yl}-[1,2,3]triazol-1-yl)-5-hydroxymethyl-tetrahydro-furan-2-yl]-1H-pyrimidine-2,4-dione], the IC50 with HeLa (cervical cancer) [1] was 0.16 µg/mL and 270 nM; in the data set with Hep-G2 (hepatic cancer) it was 3.8 µg/mL and 6.4 µM; in the data set on MCF-7 (breast cancer) [2] it was 0.16 µg/mL and 270 nM. Moreover, the “fold higher activity than 5FdU” value is “more than 20 fold” in the data set with HeLa (cervical cancer) [1] (ratio of IC50) and “more than 17.5 fold” in the data set on MCF-7 (breast cancer) [2] (MCF-7, ratio of IC50). Also, the “fold higher activity than AddFU” value is given as “more than 18 fold” in the data set with HeLa (cervical cancer) [1] (ratio of IC50); 4 fold in the data set with Hep-G2 (hepatic cancer); “more than 13 fold” in the data set on MCF-7 (breast cancer) [2] (MCF-7, ratio of IC50).
Take `C=CC1C[N@@]2CCC1C[C@@H]2[C@@H](OCc1cn(C2CC(n3cc(F)c(=O)[nH]c3=O)OC2CO)nn1)c1ccnc2ccc(OC)cc12` (stereo partly drawn) [PQD5FdU, 5-Fluoro-1-(5-hydroxymethyl-4-{4-[(6-methoxyquinolin-4-yl)-(5-vinyl-1-aza-bicyclo[2.2.2]oct-2-yl)-methoxymethyl]-[1,2,3]triazol-1-yl}-tetrahydrofuran-2-yl)-1H-pyrimidine-2,4-dione]: the IC50 was 2.8 µg/mL and 4.42 µM in the data set on HeLa (cervical cancer) [1]; 6 µg/mL and 9.47 µM with Hep-G2 (hepatic cancer); 2.9 µg/mL and 4.58 µM with MCF-7 (breast cancer) [2]. Moreover, the “fold higher activity than AddFU” value in the data set on Hep-G2 (hepatic cancer) was “more than twice as high”. Moreover, the “cytotoxic activity in words, breast cancer cells” value in the data set with MCF-7 (breast cancer) [4] is given as “medium active”.
Regarding `C=CC1C[N@@]2CCC1C[C@H]2[C@H](OCc1cn(C2CC(n3cc(F)c(=O)[nH]c3=O)OC2CO)nn1)c1ccnc2ccccc12` (stereo partly drawn) [PCD5FdU, 5-Fluoro-1-(5-hydroxymethyl-4-{4-[quinolin-4-yl-(5-vinyl-1-aza-bicyclo[2.2.2]oct-2-yl)-methoxymethyl]-[1,2,3]triazol-1-yl}-tetrahydrofuran-2-yl)-1H-pyrimidine-2,4-dione], the IC50 was 21.4 µg/mL and 35.5 µM in the data set with HeLa (cervical cancer) [1]; 13 µg/mL and 21.5 µM in the data set on MCF-7 (breast cancer) [2]. For the same compound, the “cytotoxic activity in words … (HeLa line)” value with HeLa (cervical cancer) [3] is given as “medium active”.
As to `O=c1[nH]c(=O)n([C@H]2C[C@H](O)[C@@H](CO)O2)cc1F` [5-fluoro-2′-deoxyuridine, reference compound], the IC50 in the data set on HeLa (cervical cancer) [1] was 3.2 µg/mL and 13 µM; in the data set with MCF-7 (breast cancer) [2], 2.81 µg/mL and 11.4 µM.
`C=CC1C[N@@]2CCC1C[C@H]2[C@H](OCc1cn(C2CC(n3cc(F)c(=O)[nH]c3=O)OC2CO)nn1)c1ccnc2ccc(OC)cc12` (stereo partly drawn) [PQN5FdU, 5-Fluoro-1-(5-hydroxymethyl-4-{4-[(6-methoxyquinolin-4-yl)-(5-vinyl-1-aza-bicyclo[2.2.2]oct-2-yl)-methoxymethyl]-[1,2,3]triazol-1-yl}-tetrahydrofuran-2-yl)-1H-pyrimidine-2,4-dione]: the IC50 in the data set with HeLa (cervical cancer) [1] was 1.6 µg/mL to 2.8 µg/mL and 3.16 µM; in the data set with Hep-G2 (hepatic cancer) it was 6.2 µg/mL and 9.78 µM; in the data set with MCF-7 (breast cancer) [2] it was 0.98 µg/mL to 1.5 µg/mL and 2.37 µM. Moreover, in the data set on Hep-G2 (hepatic cancer), the “fold higher activity than AddFU” value is recorded as “more than twice as high”. Further, the “Cytotoxic activity IC50 MCF-7 line (breast cancer)” value with MCF-7 (breast cancer) [4] was determined as 1.5 µg/mL. Moreover, in the data set on HeLa (cervical cancer) [3], the “Cytotoxic activity IC50 HeLa (cervical cancer)” value worked out at 2.0 µg/mL.
